Assay results from patent EP1371368A1, “Salvianolic acid components as lipase inhibitors” (N.V. Nutricia, priority 2002, dated 2003).

Target: T1, porcine pancreas lipase (Sus scrofa, UniProt P00591)
T1 construct: purchased ICN Biomedicals BV
T1 sequence (P00591 1-450): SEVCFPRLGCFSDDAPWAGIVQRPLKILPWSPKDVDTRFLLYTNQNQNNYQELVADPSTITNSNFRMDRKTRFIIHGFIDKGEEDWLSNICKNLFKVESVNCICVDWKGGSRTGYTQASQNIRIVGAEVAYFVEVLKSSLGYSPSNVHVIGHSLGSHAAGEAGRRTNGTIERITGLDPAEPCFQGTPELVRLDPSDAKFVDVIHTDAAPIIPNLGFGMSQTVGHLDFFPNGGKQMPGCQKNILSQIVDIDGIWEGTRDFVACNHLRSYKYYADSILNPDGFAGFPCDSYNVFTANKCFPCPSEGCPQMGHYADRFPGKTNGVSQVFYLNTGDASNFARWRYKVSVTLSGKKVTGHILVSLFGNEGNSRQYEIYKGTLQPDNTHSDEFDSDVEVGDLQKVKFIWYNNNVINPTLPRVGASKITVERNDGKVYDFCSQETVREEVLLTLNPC
Assay: In vitro lipase inhibitory activity (hydrolysis of p-nitrophenyl caprylate to p-nitrophenol, absorption at 405 nm)
Assay type: biochemical
Details: inhibition of lipase activity compared to control at the final concentration printed in the same row
Description: Lipase activity was determined by measuring the rate of hydrolysis of p-nitrophenyl caprylate to p-nitrophenol (yellow) and caprylate.
Phosphate buffer A (200 mM phosphate buffer with a pH 7) was prepared by mixing: 488 ml 200 mM Na2HPO4·H2O (17.5 gram/500 ml) with 296 ml 200 mM NaH2PO4·H2O (13.8 gram/500 ml) followed by adjustment of the pH. Substrate solution was prepared freshly by mixing: • a) 500 ml buffer B (200 mM phosphate buffer A pH 7 containing 0.1% (w/v) Triton x-100) and • b) 5.3 ml stock solution of the substrate (250 mM p-nitrophenyl caprylaat (pnp) in acetonitrile). […] The final concentration of pnp in the substrate solution is thus 2.66 mM pnp. Subsequently, the substrate solution was placed in an ultrasonic bath for exactly 3 minutes. […]
Samples were prepared by adding 40 mg of commercial extracts of Salvia material to 4 ml DMSO, incubating at room temperature for 15 minutes, followed by centrifugation to remove the insolubles. […] For each sample the capacity to inhibit lipase activity was determined.
25 µl of sample (25 µl DMSO for control) was added to 150µl substrate solution and incubated for 10 minutes at 37 °C. Subsequently 25 µl lipase solution was added and the p-nitrophenol formation was determined during a period of 10 minutes by measuring the absorption increase at 405 nm. […]

SMILES: CCCCCCCCCCC[C@@H](C[C@@H]1OC(=O)[C@H]1CCCCCC)OC(=O)[C@H](CC(C)C)NC=O [Orlistat]
- Inhibition (%): 50%
